This is an account of results in patent US8846656B2, “Tetrahydropyrido-pyridine and tetrahydropyrido-pyrimidine compounds and use thereof as C5a receptor modulators” (Novartis AG, priority 2011, dated 2014).

pIC50: −log10 of the molar value.

In one experiment the target is human C5aR (Homo sapiens (Human), UniProt P21730). Kind of experiment: FLIPR assay: inhibition of C5a-mediated calcium mobilization. The class given is cell-based. As to conditions: stable cell line over expressing human C5aR & Gα15, human C5a at EC50 (0.1-0.25 nM). Summed up:
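Compounds were added for 30 minutes at room temperature (1% DMSO) ahead of C5a stimulation. Before this, cells were dye-loaded for 1 h at 37° C: calcium 5 with 2.5 mM probenecid in HBSS, 20 mM HEPES, 0.1% BSA. Cells co-express human C5aR and Gα15; read-out is FLIPR Tetra calcium flux.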

Another experiment has as its system CD11b. Nature of the experiment: Human whole blood CD11b up-regulation assay. The class given is cell-based. To be noted: Homo sapiens, 2 nM human C5a, CD15+ granulocytes, read-out: hCD11b IC50. Summed up:
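Flow cytometric read-out: CD11b median fluorescence intensity of CD15+ granulocytes, 10,000 events. Stimulus was 2 nM human C5a for 15 min at room temperature, following 10 min compound exposure in 1% DMSO in fresh sodium-heparin whole blood; staining done on ice and erythrocytes lysed.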

human C5aR, sequence (P21730 whole entry): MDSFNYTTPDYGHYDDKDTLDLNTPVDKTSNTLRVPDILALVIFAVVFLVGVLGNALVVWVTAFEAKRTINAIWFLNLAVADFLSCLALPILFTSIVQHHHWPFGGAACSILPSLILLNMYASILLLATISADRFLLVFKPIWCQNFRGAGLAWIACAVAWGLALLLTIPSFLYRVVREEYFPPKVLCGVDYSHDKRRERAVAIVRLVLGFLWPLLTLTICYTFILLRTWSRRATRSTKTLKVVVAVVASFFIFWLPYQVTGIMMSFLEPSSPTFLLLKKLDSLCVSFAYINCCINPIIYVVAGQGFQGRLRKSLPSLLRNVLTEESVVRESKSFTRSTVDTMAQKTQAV

On to `CO[C@@H]1CCN(c2nc(-c3c(C)cccc3C)nc3c2CN(c2cc(C(F)(F)F)ccc2C)CC3)[C@H](C)C1` [Example 21-AK, 2-(2,6-dimethylphenyl)-4-((2R,4R)-4-methoxy-2-methylpiperidin-1-yl)-6-(2-methyl-5-(trifluoromethyl)phenyl)-5,6,7,8-tetrahydropyrido[4,3-d]pyrimidine], for which the negative logarithm of the IC50 (pIC50) – broadly, the negative decadic logarithm of the IC50, by convention in mol/L – at human C5aR is 8.30; with CD11b, 7.29.
For the compound `CO[C@H]1CCN(c2nc(-c3cccc4[nH]cc(C)c34)nc3c2CN(c2cc(C(C)C)ccc2C)CC3)C[C@H]1C` (racemic) [Example 17-AQ, racemic 6-(5-isopropyl-2-methylphenyl)-4-(4-methoxy-3-methylpiperidin-1-yl)-2-(3-methyl-1H-indol-4-yl)-5,6,7,8-tetrahydropyrido[4,3-d]pyrimidine], the negative-log IC50 (pIC50) on human C5aR is 7.80; with CD11b, 6.56.
For the compound `CO[C@@H]1CCN(c2nc(-c3c(C)ccc4[nH]nc(C)c34)nc3c2CN(c2cc(C(F)(F)F)nn2C)CC3)[C@H](C)C1` [Example 23-J, 2-(3,5-dimethyl-1H-indazol-4-yl)-4-((2R,4R)-4-methoxy-2-methylpiperidin-1-yl)-6-(1-methyl-3-(trifluoromethyl)-1H-pyrazol-5-yl)-5,6,7,8-tetrahydropyrido[4,3-d]pyrimidine], the pIC50 was 8.10 on human C5aR and 7.42 with CD11b.
As for `COC1CCN(c2nc(-c3c(C)cccc3C)nc3c2CN([C@@H](C)c2ccccc2)CC3)CC1(C)C` (mixture of isomers) [Example 33-C, (±)-2-(2,6-Dimethylphenyl)-4-(4-methoxy-3,3-dimethylpiperidin-1-yl)-6-((S)-1-phenylethyl)-5,6,7,8-tetrahydropyrido[4,3-d]pyrimidine], the values for the negative logarithm of the IC50 (pIC50) at human C5aR and in the experiment with CD11b were 7.10 and 6.62, respectively.
Take `CO[C@H]1CCN(c2nc(-c3c(C(C)C)ccc4[nH]ncc34)nc3c2CN(c2cc(C4(C)COC4)ccc2C)CC3)CC1(C)C` [Example 19-AC, (S)-2-(5-isopropyl-1H-indazol-4-yl)-4-(4-methoxy-3,3-dimethylpiperidin-1-yl)-6-(2-methyl-5-(3-methyloxetan-3-yl)phenyl)-5,6,7,8-tetrahydropyrido[4,3-d]pyrimidine]: the values for the negative logarithm of the IC50 (pIC50) at human C5aR and with CD11b were 8.40 and 7.30, respectively.
For the compound `COc1nc(-c2c(C)ccc3[nH]nc(C)c23)nc2c1CN(c1cc(C3(C)COC3)ccc1C)CC2` [Example 31-H, 2-(3,5-dimethyl-1H-indazol-4-yl)-4-methoxy-6-(2-methyl-5-(3-methyloxetan-3-yl)phenyl)-5,6,7,8-tetrahydropyrido[4,3-d]pyrimidine], the pIC50 on human C5aR was 7.11; in the experiment on CD11b it was 7.14.
Consider `CO[C@@H]1CCN(c2nc(-c3c(C)cccc3C)nc3c2CN(c2cc(C(F)(F)F)ccc2C)CC3)CC1(C)C` [Example 21-AB, (R)-2-(2,6-dimethylphenyl)-4-(4-methoxy-3,3-dimethylpiperidin-1-yl)-6-(2-methyl-5-(trifluoromethyl)phenyl)-5,6,7,8-tetrahydropyrido[4,3-d]pyrimidine], for which the negative-log IC50 (pIC50) is 8.40 at human C5aR and 7.96 in the experiment with CD11b.
Turning to `CO[C@@H]1CCN(c2nc(-c3c(C(F)(F)F)cnc4[nH]ccc34)nc3c2CN(c2cc(C(C)C)ccc2C)CC3)[C@H](C)C1` [Example 22-C, 6-(5-Isopropyl-2-methylphenyl)-4-((2R,4R)-4-methoxy-2-methylpiperidin-1-yl)-2-(5-(trifluoromethyl)-1H-pyrrolo[2,3-b]pyridin-4-yl)-5,6,7,8-tetrahydropyrido[4,3-d]pyrimidine], the pIC50 on human C5aR is 8.70; in the experiment with CD11b it was 7.77.
Taken in the same sequence, the figures for `Cc1ccc(C(C)C)cc1N1CCc2nc(-c3c(C)ccc4[nH]ncc34)nc(N3CCN(CC(N)=O)C[C@H]3C)c2C1` [Example 24-L, (R)-2-(4-(6-(5-isopropyl-2-methylphenyl)-2-(5-methyl-1H-indazol-4-yl)-5,6,7,8-tetrahydropyrido[4,3-d]pyrimidin-4-yl)-3-methylpiperazin-1-yl)acetamide] were 8.22 and 6.41.
Turning to `Cc1ccc(C(C)C)cc1N1CCc2nc(-c3cccc4[nH]cc(C)c34)nc(N3CCN(CC(N)=O)C[C@H]3C)c2C1` [Example 52-C, (R)-2-(4-(6-(5-Isopropyl-2-methylphenyl)-2-(3-methyl-1H-indol-4-yl)-5,6,7,8-tetrahydropyrido[4,3-d]pyrimidin-4-yl)-3-methylpiperazin-1-yl)acetamide], the negative-log IC50 (pIC50) on human C5aR was 9.00; in the experiment with CD11b it was 6.75.
Take `CO[C@@H]1CCN(c2nc(-c3c(C)ccc4[nH]nc(C)c34)nc3c2CN(c2cc(C(F)(F)F)ccc2C)CC3)CC1(C)C` [Example 21-AJ, (R)-2-(3,5-dimethyl-1H-indazol-4-yl)-4-(4-methoxy-3,3-dimethylpiperidin-1-yl)-6-(2-methyl-5-(trifluoromethyl)phenyl)-5,6,7,8-tetrahydropyrido[4,3-d]pyrimidine]: the pIC50 is 8.22 at human C5aR and 7.82 with CD11b.
Taken in the same sequence, the figures for `CO[C@H]1CCN(c2nc(-c3c(C)ccc4[nH]nc(Cl)c34)nc3c2CN(c2cc(C(C)C)ccc2C)CC3)CC1(C)C` [Example 32-B, (S)-2-(3-Chloro-5-methyl-1H-indazol-4-yl)-6-(5-isopropyl-2-methylphenyl)-4-(4-methoxy-3,3-dimethylpiperidin-1-yl)-5,6,7,8-tetrahydropyrido[4,3-d]pyrimidine] were 8.70 and 7.62.
As for `CC(=O)N1CCN(c2nc(-c3cccc4[nH]cc(C)c34)nc3c2CN(c2cc(C4CC4)ccc2C)CC3)[C@H](C)C1` [Example 25-C, (R)-1-(4-(6-(5-cyclopropyl-2-methylphenyl)-2-(3-methyl-1H-indol-4-yl)-5,6,7,8-tetrahydropyrido[4,3-d]pyrimidin-4-yl)-3-methylpiperazin-1-yl)ethanone], the negative-log IC50 (pIC50) on human C5aR was 8.30; in the experiment with CD11b, 6.74.
Regarding `[2H]C1([2H])c2c(C)cc(-c3c(CC)cccc3CC)nc2CCN1c1c(Cl)c(C2CC2)nn1C` [Example 42-I, 6-(4-chloro-3-cyclopropyl-1-methyl-1H-pyrazol-5-yl)-2-(2,6-diethylphenyl)-4-methyl-5,6,7,8-tetrahydro(5,5-^2H2)-1,6-naphthyridine], the negative-log IC50 (pIC50) is 7.85 at human C5aR and 5.67 with CD11b.
As for `CO[C@@H]1CCN(c2nc(-c3c(C)cccc3C#N)nc3c2CN(c2cc(C(C)C)ccc2C)CC3)C[C@H]1C` [Example 19-AK, 2-(6-(5-isopropyl-2-methylphenyl)-4-((3R,4R)-4-methoxy-3-methylpiperidin-1-yl)-5,6,7,8-tetrahyropyrido[4,3-d]pyrimidin-2-yl)-3-methylbenzonitrile], the pIC50 on human C5aR is 7.51; in the experiment with CD11b it was 7.52.
As to `CO[C@@H]1CCN(c2nc(-c3c(C)ccc4[nH]nc(C)c34)nc3c2CN(c2cc(C4(C)COC4)ccc2C)CC3)[C@H](C)C1` [Example 21-R, 2-(3,5-dimethyl-1H-indazol-4-yl)-4-((2R,4R)-4-methoxy-2-methylpiperidin-1-yl)-6-(2-methyl-5-(3-methyloxetan-3-yl)phenyl)-5,6,7,8-tetrahydropyrido[4,3-d]pyrimidine], the pIC50 is 9.00 at human C5aR and 7.82 in the experiment on CD11b.
Taken in the same sequence, the figures for `Cc1ccc2[nH]nc(C)c2c1-c1nc2c(c(N3CC[C@@H](N(C)C)C3)n1)CN(c1c(Cl)c(C3CC3)nn1C)CC2` [Example 68-C, (R)-1-(6-(4-chloro-3-cyclopropyl-1-methyl-1H-pyrazol-5-yll)-2-(3,5-dimethyl-1H-indazol-4-yl)-5,6,7,8-tetrahydropyrido[4,3-d]pyrimidin-4-yl)-N,N-dimethylpyrrolidin-3-amine] were 7.80 and 7.16.
With `CO[C@@H]1CCN(c2nc(-c3cc(C)ccc3C)nc3c2CN(c2cc(C(C)C)ccc2C)CC3)[C@H](C)C1` [Example 21-E, 2-(2,5-dimeethylphenyl)-6-(5-isopropyl-2-methylphenyl)-4-((2R,4R)-4-methoxy-2-methylpiperidin-1-yl)-5,6,7,8-tetrahydropyrido[4,3-d]pyrimidine], the negative logarithm of the IC50 (pIC50) on human C5aR was 7.64; in the experiment on CD11b it was 6.37.
With `Cc1ccc(C(C)C)cc1N1CCc2nc(-c3c(C)ccc4[nH]nc(C)c34)nc(N3CCCC[C@H]3C)c2C1` [Example 21-AM, (R)-2-(3,5-dimethyl-1H-indazol-4-yl)-6-(5-isopropyl-2-methylphenyl)-4-(2-methylpiperidin-1-yl)-5,6,7,8-tetrahydropyrido[4,3-d]pyrimidine], the pIC50 was 9.00 at human C5aR and 8.15 in the experiment on CD11b.
Consider `Cc1ccc(C(F)(F)F)cc1N1CCc2nc(-c3cccc4[nH]cc(C)c34)nc(N3CCN(CC(N)=O)[C@H](C)C3)c2C1` [Example 24-G, (R)-2-(2-methyl-4-(2-(3-methyl-1H-indol-4-yl)-6-(2-methyl-5-(trifluoromethyl)phenyl)-5,6,7,8-tetrahydropyrido[4,3-d]pyrimidin-4-yl)piperazin-1-yl)acetamide], for which the pIC50 at human C5aR is 8.15; in the experiment with CD11b, 6.17.
On to `CO[C@H]1C[C@H]2CC[C@@H](C1)N2c1nc(-c2c(C)ccc3[nH]nc(C)c23)nc2c1CN(c1c(F)c(C3CC3)nn1C)CC2` [Example 56-B], for which the pIC50 at human C5aR was 8.70; with CD11b, 7.35.
Taken in the same sequence, the figures for `CC(=O)N1CCN(c2nc(-c3cccc4[nH]cc(C)c34)nc3c2CN(c2cc(C4(C)COC4)ccc2C)CC3)[C@H](C)C1` [Example 26-B, (R)-1-(3-Methyl-4-(2-(3-methyl-1H-indol-4-yl)-6-(2-methyl-5-(3-methyloxetan-3-yl)phenyl)-5,6,7,8-tetrahydropyrido[4,3-d]pyrimidin-4-yl)piperazin-1-yl)ethanone] were 7.70 and 6.04.
